Measurements as given in patent publication US12377076B2, “Compounds for treating lymphoma or a T-cell malignant disease” (Purdue Pharma L.P., priority 2018, dated 2025).
Values joined by “and” are separate entries in the source; they are usually repeats but may differ in a detail not shown here. Equal entries are not always repeated. “Also recorded” adds a separate entry of the source.

Tests used:
[1] = system: patients with relapsed/refractory hematologic malignancies; assay: Phase 1 dose escalation trial: safety, TEAEs, DLTs, MTD; type: in vivo, human
Method: A phase 1 trial was carried out including a dose escalation study to investigate the safety, pharmacokinetic (PK) profiles and efficacy of tinostamustine (EDO-S101) in relapsed/refractory hematologic malignancies.
The patient had relapsed/refractory hematologic malignancies for which there are no available therapies.
The assessment of dose-limiting toxicities (DLTs) was based on cycle 1 events alone. Toxicities were assessed regarding type and severity using the National Cancer Institute (NCI) Common Terminology Criteria for Adverse Events (CTCAE) version 4.03, June 2010. Toxicity data were collected for all patients throughout their time on study. Infusion site reactions were assessed using the Phlebitis Scale developed by the Infusion Nurses Society (2011).
DLTs, which were at least possibly related to study drug, were defined as: • Any Grade 3 or 4 non-hematologic toxicity (excluding alopecia and easily correctable electrolyte abnormalities); • Nausea, vomiting or diarrhoea that persists beyond 10 days despite aggressive symptomatic treatment; • Grade 4 neutropenia or thrombocytopenia lasting for 7 days or more; • Any grade 2 or more toxicity, but persist for over 3 weeks; and • Any toxicity resulting in a delay of the next dose administration (cycle 2 day 1≥14).
To ensure patients' safety, the stopping rules were implemented to the dose escalation stage of the study.
Other safety assessments included physical examinations, Eastern Cooperative Oncology Group (ECOG) performance status determinations, electrocardiograms (ECGs), pregnancy testing for women of childbearing potential, documentation of treatment-emergent adverse events (TEAEs), clinical laboratory evaluations including haematology, blood chemistry and urinalysis, vital signs, and documentation of concomitant medication usage.
If there is no DLT observed in any of these subjects, the trial proceeds to enroll additional subjects into the next higher dose cohort. If one subject develops a DLT at a specific dose, an additional three subjects are enrolled into that same dose cohort.

[2] = system: lymphoma; settings: in vitro and in vivo models; cited from earlier work
[3] = all cohorts administered over 30 or 45 minutes
[4] = clinical chemistry TEAE, All Patients (N = 46)
[5] = clinical chemistry TEAE, all patients
[6] = doses of 20 to 80 mg/m^2, cohorts 20/60 to 120/60
[7] = doses of 100 or 120 mg/m^2, cohorts 20/60 to 120/60
[8] = patients with normal or grade 1 or 2 values at baseline

With `Cn1c(CCCCCCC(=O)NO)nc2cc(N(CCCl)CCCl)ccc21` [tinostamustine] the “DLTs in cycle 1” value ([1]; 100 mg/m^2 over 60 minutes) was “no dose-limiting toxicities”, the “patients with Grade 3 and 4 thrombocytopenia in C2 and C3 leading to withdrawal” value ([1]; 100 mg/m^2 over 60 minutes) was “three” and the “Grade 3 TEAE” value ([1]; Patients (N = 46)) was 28 (60.8). The “Grade 4 TEAE” value ([1]; Patients (N = 46)) was 13 (28.2), the Infusion site phlebitis ([1]; Patients (N = 46)) was 1 (2.1) and the SAE ([1]; Patients (N = 46)) was 8 (17.4). For the same compound, the “TEAE leading to early study discontinuation” value ([1]; Patients (N = 46)) was 11 (23.9), the “TEAE with outcome of death” value ([1]; Patients (N = 46)) was 0 (0) and the TEAE ([1]; Patients (N = 46), number (percent)) was 42 (91.3). For the same compound, the “Treatment-related TEAE” value ([1]; Patients (N = 46), relationship possible, probable or definite) was 38 (82.6), the incidence of leukopenia ([1]; administered over 30 or 45 minutes) was 16% and the incidence of leukopenia ([1]; administered over 60 minutes) was 27%. For the same compound, the incidence of thrombocytopenia ([1]; administered over 60 minutes) was 58%, the “maximum tolerated dose (MTD)” value ([1]; administered over 60 minutes, subset of patients with MM (N=11)) was 100 mg/m^2 and the SAE dyspnea ([1]; all 46 patients) was 2%. The SAE febrile neutropenia ([1]; all 46 patients) was 2%, the SAE hypersensitivity ([1]; all 46 patients) was 2% and the SAE osteomyelitis ([1]; all 46 patients) was 2%. It also gave an SAE pleural effusion ([1]; all 46 patients) of 2%, an SAE pneumonia ([1]; all 46 patients) of 2% and an SAE sepsis ([1]; all 46 patients) of 2%. The “TEAE with an outcome of death (grade 5 TEAE)” value ([1]; all 46 patients) was “No patient”, the “anaphylactic reaction leading to study drug discontinuation” value ([1]; all 46 patients) was 2% and the “blood and lymphatic system disorders” value ([1]; all 46 patients) was 54%. The “discontinuation for adverse events (AE)” value ([1]; all 46 patients) was 29%, the “febrile neutropenia leading to study drug discontinuation” value ([1]; all 46 patients) was 2% and the “gastrointestinal (GI) disorders” value ([1]; all 46 patients) was 52%. For the same compound, the “general disorders and administration site conditions” value ([1]; all 46 patients) was 50%, the “grade 3/4 anemia” value ([1]; all 46 patients) was 22% and the “grade 3/4 leukopenia/WBC decreased” value ([1]; all 46 patients) was 15% and 16%. The “grade 3/4 lymphopenia” value ([1]; all 46 patients) was 8.6%, the “grade 3/4 neutropenia/neutrophil count decreased” value ([1]; all 46 patients) was 29% and the “grade 3/4 thrombocytopenia” value ([1]; all 46 patients) was 39% and 40%. The “hypersensitivity leading to study drug discontinuation” value ([1]; all 46 patients) was 2%, the “incidence of all other TEAEs” value ([1]; all 46 patients) was less than 20% and the incidence of nausea ([1]; all 46 patients) was 29%. For the same compound, the infusion-site phlebitis events ([1]; all 46 patients) was 2%, the “neutropenia leading to study drug discontinuation” value ([1]; all 46 patients) was 4% and the “patients who discontinued study drug because of a TEAE” value ([1]; all 46 patients) was 23%. The “patients with a grade 3 or 4 TEAE” value ([1]; all 46 patients) was 63%, the “patients with at least 1 grade 3 TEAE” value ([1]; all 46 patients) was 60% and the “patients with at least 1 grade 4 TEAE” value ([1]; all 46 patients) was 28%. For the same compound, the “patients with at least 1 serious adverse event (SAE)” value ([1]; all 46 patients) was 18%, the “patients with at least one TEAE” value ([1]; all 46 patients) was 91% and the “patients with at least one study drug-related TEAE” value ([1]; all 46 patients) was 38 patients. For the same compound, the “pleural effusion leading to study drug discontinuation” value ([1]; all 46 patients) was 2%, the “pruritus leading to study drug discontinuation” value ([1]; all 46 patients) was 2% and the “thrombocytopenia leading to study drug discontinuation” value ([1]; all 46 patients) was 15%. For the same compound, the incidence of anaemia ([1]; all 46 patients, any grade) was 39%, the “incidence of leukopenia/WBC decreased” value ([1]; all 46 patients, any grade) was 21% and 22% and the “incidence of neutropenia/neutrophil count decreased” value ([1]; all 46 patients, any grade) was 29% and 28%. The “incidence of thrombocytopenia/platelet count decreased” value ([1]; all 46 patients, any grade) was 52%, the SAE thrombocytopenia ([1]; all 46 patients, grade 3, HM120/60 cohort) was 2% and the incidence of anaemia [1, 3] was 37%. The incidence of thrombocytopenia [1, 3] was 47%, the “thrombocytopenia leading to study drug and/or study discontinuation” value ([1]; all patients) was 19% and the “Blood alkaline phosphatase increased” value [1, 4] was 1 (2.1) n (%). The Blood magnesium decreased [1, 4] was 1 (2.1) n (%), the Blood potassium decreased/hypokalaemia [1, 4] was 5 (10.8) n (%) and the C-reactive protein increased [1, 4] was 2 (4.3) n (%). For the same compound, the Hyperglycaemia [1, 4] was 1 (2.1) n (%), the Hyperuricemia [1, 4] was 1 (2.1) n (%) and the blood creatinine increased [1, 4] was 4 (8.6) n (%). For the same compound, the C-reactive protein increased [1, 5] was 4%, the blood creatinine increased [1, 5] was 9% and the blood potassium decreased/hypokalemia [1, 5] was 11%. For the same compound, the “grade 3 hyperuricemia” value ([1]; considered unrelated to study drug) was 2%, the DLTs that occurred ([1]; dose cohort of 120/60) was “Grade 4 thrombocytopenia lasting for 7 days or more; also recorded: Prolonged thrombocytopenia/toxicity resulting in the delay of the next dose administration” and the “incidence of grade 3 or 4 anaemia” value ([1]; doses of 20 to 80 mg/m^2) was 8%. The incidence of anaemia [1, 6] was 25%, the “incidence of grade 3/4 thrombocytopenia” value [1, 6] was 8% and the incidence of leukopenia [1, 6] was 17%. For the same compound, the incidence of neutropenia [1, 6] was 25%, the “incidence of grade 3 or 4 anaemia” value ([1]; doses of 100 or 120 mg/m^2) was 36% and the incidence of anaemia [1, 7] was 64%. The “incidence of grade 3/4 thrombocytopenia” value [1, 7] was 71%, the incidence of leukopenia [1, 7] was 36% and the incidence of neutropenia [1, 7] was 50%. The haematological nadir occurs ([1]; human, in vivo, intravenous) was 17-23 day, the “patients who discontinued study drug and/or the study because of neutropenia” value ([1]; in vivo) was “Two” and the “patients who discontinued study drug or the study because of leukopenia” value ([1]; in vivo) was “No patient”. For the same compound, the “patients with treatment-emergent QTcF interval >500 msec” value ([1]; in vivo) was “One”, the “treatment-emergent ECG abnormality indicated to be clinically significant” value ([1]; in vivo) was “No patient” and the MTD ([1]; lymphoma and multiple myeloma patients) was 100 mg/m^2. For the same compound, the MTD ([1]; lymphoma subpopulation) was 100 mg/m^2, the MAD ([1]; lymphoma subpopulation, administered over 1 hour) was 120 mg/m^2 and the “patients experiencing DLTs” value ([1]; lymphoma, 120 mg/m^2 over 1 hour) was “Two out of six”. For the same compound, the QTcF interval ([1]; one subject, MM 80/45 cohort, discontinuation visit three weeks after only dose, screening 423 msec) was 677 ms, the “incidence of cardiac disorders” value ([1]; overall) was 11% and the “study drug-related cardiac disorder, grade 1 palpitations” value ([1]; overall) was 2%. The tachycardia ([1]; overall) was 4%, the “treatment-emergent grade 4 clinical chemistry abnormality, hyperuricemia” value [1, 8] was 2% and the “treatment-emergent shift to grade 3 aspartate aminotransferase increased” value [1, 8] was 2%. For the same compound, the “treatment-emergent shift to grade 3 hypoalbuminemia” value [1, 8] was 2%, the incidence of neutropenia ([1]; shorter infusion times) was 16% and the activity against lymphoma [2] was “potent activity”.
